Results published in patent publication US7563787B2, “Substituted pyrazole compounds” (Miikana Therapeutics, Inc., priority 2005, dated 2009).

Experiments:
Aurora B kinase = target: T1, Aurora B kinase (Homo sapiens, UniProt Q96GD4); assay: Aurora B (Aurora 1) Inhibition Assay; assay type: biochemical; conditions: 100 μM compound; ATP 50 μM; 16 h
T1 construct: purchased BPS Biosciences, San Diego, Calif
Protocol: Assays for Aurora B kinase inhibition were carried out similarly to those for Aurora A kinase (see above) with the following modifications. Aurora B kinase (BPS Biosciences, San Diego, Calif.) was used as the enzyme, at a concentration was 2.5 μg/mL. The ATP concentration was 50 μM, and the kinase reaction was allowed to proceed for 16 h. Sodium orthovanadate (20 μM) was added to the buffer to inhibit contaminating phosphatases.

HCT-116 cell growth = assay: Whole Cell Cytotoxicity Assay: Sulforhodamine B; assay type: cell-based, Human; conditions: Homo sapiens, HCT-116; 100 μM compound; 96 hours; SRB staining
Protocol: Human tumor-derived cell lines, HCT116 or MCF7 (ATCC) were plated in a 96 well plate in DMEM containing 10% fetal bovine serum and 2 mM L-glutamine at a density of 500 HCT116 cells or 1,000 MCF7 cells per well and incubated at 37° C., 5% CO2, for 24 hours prior to the addition of experimental compounds. Compounds were added using the dilution series indicated to duplicate plates and the cells were incubated in media plus compound for 96 hours. An additional plate was fixed in 10% TCA at the time of the addition of compound to provide a measurement of the cell population at time zero, the time of drug addition. Following the 96 hour incubation, cells were fixed in situ by gently aspirating off the culture media and then adding 50 ul of ice cold 10% TCA per well and incubation at 4° C. for 60 minutes. The plates were washed with tap water five times and allowed to air dry for 5 minute. 50 ul of a 0.4% (w/v) Sulforhodamine B solution in 1% (v/v) acetic acid was added per well and the cells were incubated for 30 minutes at room temperature. Following staining, plates were washed four times with 1% acetic acid to remove any unbound dye and then allowed to air dry for 5 minutes. The stain was solubilized with 100 ul of 10 mM Tris pH 10.5 per well and placed on an orbital rotator for 5 minutes. The absorbance was read at 570 nm. Percentage growth was calculated using the absorbance readings from the time zero plate (Tz) and the dilution series plate […] which included a column of cells grown in media without compound as a control (C) using the formulas: [(Ti−Tz)/(C−Tz)]×100 for concentrations for which Ti>/=Tz [(Ti−Tz)/Tz]×100 for concentrations for which Ti<Tz.
Three dose response parameters were calculated for each experimental agent. Growth inhibition of 50% (GI50) was calculated from [(Ti−Tz)/(C−Tz)]×100=50, which was the drug concentration resulting in a 50% reduction in the net protein increase (as measured by SRB staining) in control cells during the drug incubation. The drug concentration resulting in total growth inhibition (TGI) was calculated from Ti=Tz. The LC50 (concentration of drug resulting in a 50% reduction in the measured protein at the end of the drug treatment as compared to that at the beginning) indicating a net loss of cells following treatment was calculated from [(Ti−Tz)/Tz]×100=−50. Values are calculated for each of these three parameters if the level of activity was reached; however, if the effect was not reached or was exceeded, the value for that parameter is expressed as greater or less than the maximum or minimum concentration tested.

recombinant Aurora A = target: T2, recombinant Aurora A (Homo sapiens, UniProt O14965); assay: Aurora A (Aurora 2) Inhibition Assay (Z'-Lyte); assay type: biochemical; conditions: 100 μM compound; ATP 10 μM; 1 h
T2 construct: purchased Upstate, Lake Placid, N.Y
T2 sequence (O14965 1-403): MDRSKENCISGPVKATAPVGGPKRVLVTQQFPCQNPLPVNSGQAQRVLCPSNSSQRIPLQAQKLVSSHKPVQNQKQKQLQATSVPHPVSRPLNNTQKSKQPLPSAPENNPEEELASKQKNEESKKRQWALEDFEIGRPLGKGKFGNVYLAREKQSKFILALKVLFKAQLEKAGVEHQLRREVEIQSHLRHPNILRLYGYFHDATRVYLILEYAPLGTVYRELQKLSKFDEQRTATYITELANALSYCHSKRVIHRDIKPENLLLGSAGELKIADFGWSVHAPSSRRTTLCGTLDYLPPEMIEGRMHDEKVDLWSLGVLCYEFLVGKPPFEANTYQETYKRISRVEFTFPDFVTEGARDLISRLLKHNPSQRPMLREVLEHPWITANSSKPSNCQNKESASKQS
Protocol: Compounds were tested for their potency against recombinant Aurora A (Upstate, Lake Placid, N.Y.) using the PanVera Z'-Lyte kinase assay kit-Ser/[…] peptide (Invitrogen, Carlsbad, Calif.). […] Assays were carried out in half-area 96-well white polystyrene assay plates (Corning, Corning, N.Y.) in a final volume of 20 μl. The reaction was allowed to proceed for 1 h at room temperature in the dark, at which point the development reagent and stop reagent were added according to the manufacturer's instructions. Coumarin (Ex. 400 nm, Em. 465 nm) and fluorescein (Ex. 400 nm, Em. 565 nm) fluorescence values were measured on a SpectraFluor Plus plate reader (Tecan, Durham, N.C.). The emission ratio (coumarin/fluorescein) was determined and used to calculate the percent phosphorylation for each well. […] Typically 20-40% of the substrate was phosphorylated in wells without inhibitor. Dose-response curves of relative Aurora A activity vs. inhibitor concentration were plotted with Grafit (Erithacus Software, Horley, Surrey, UK).

T1 sequence (Q96GD4 whole entry): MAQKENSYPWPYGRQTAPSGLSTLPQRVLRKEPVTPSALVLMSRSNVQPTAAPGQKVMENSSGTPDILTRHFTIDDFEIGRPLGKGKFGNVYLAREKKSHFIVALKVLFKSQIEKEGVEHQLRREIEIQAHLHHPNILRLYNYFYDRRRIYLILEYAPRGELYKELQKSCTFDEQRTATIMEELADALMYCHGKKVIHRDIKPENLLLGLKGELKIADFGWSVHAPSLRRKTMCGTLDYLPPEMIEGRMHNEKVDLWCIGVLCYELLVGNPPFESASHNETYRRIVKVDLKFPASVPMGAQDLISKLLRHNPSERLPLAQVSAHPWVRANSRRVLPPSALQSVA

Molecule `CCOC(=O)c1nc(/C=C/c2ccccc2)nc(Nc2cc(C)n[nH]2)c1N` [Example 18, ethyl 5-amino-6-[(3-methyl-1H-pyrazol-5-yl)amino]-2-[(E)-2-phenylvinyl]pyrimidine-4-carboxylate] has an inhibition at 100 µM (Aurora B kinase) of 100%, an inhibition at 100 µM (HCT-116 cell growth) of 80% and an inhibition at 100 µM (recombinant Aurora A) of 100%.

`COC(=O)c1cc(Nc2cc(C)n[nH]2)nc(/C=C/c2ccccc2)n1` [Example 26, methyl 6-[(3-methyl-1H-pyrazol-5-yl)amino]-2-[(E)-2-phenylvinyl]pyrimidine-4-carboxylate] gave an inhibition at 100 µM (Aurora B kinase) of 95%, an inhibition at 100 µM (HCT-116 cell growth) of 98% and an inhibition at 100 µM (recombinant Aurora A) of 99%.

With `Cc1cc(Nc2cc(N3CCN(C)CC3)nc(C#Cc3ccccc3)n2)n[nH]1` [Example 30, 6-(4-methylpiperazin-1-yl)-N-(3-methyl-1H-pyrazol-5-yl)-2-(phenylethynyl)pyrimidin-4-amine] the inhibition at 100 µM (Aurora B kinase) was 97%, the inhibition at 100 µM (HCT-116 cell growth) was 99% and the inhibition at 100 µM (recombinant Aurora A) was 100%.

With `Cc1cc(Nc2cc(N3CCN(C)CC3)nc(/C=C\c3ccccc3)n2)n[nH]1` [Example 32, 6-(4-methylpiperazin-1-yl)-N-(3-methyl-1H-pyrazol-5-yl)-2-[(Z)-2-phenylvinyl]pyrimidin-4-amine] the inhibition at 100 µM (Aurora B kinase) was 99%, the inhibition at 100 µM (HCT-116 cell growth) was 87% and the inhibition at 100 µM (recombinant Aurora A) was 100%.

For `Cc1cc(Nc2cc(N3CCN(C)CC3)nc(/C=C/c3ccco3)n2)n[nH]1` [Example 60, 2-((E)-2-(furan-2-yl)vinyl)-N-(5-methyl-1H-pyrazol-3-yl)-6-(4-methylpiperazin-1-yl)pyrimidin-4-amine], the inhibition at 100 µM (Aurora B kinase) was 99%, the inhibition at 100 µM (HCT-116 cell growth) was 98% and the inhibition at 100 µM (recombinant Aurora A) was 100%.

With `Cc1cc(Nc2cc(N3CCCCC3)nc(/C=C/c3ccccc3)n2)n[nH]1` [Example 67, N-(5-methyl-1H-pyrazol-3-yl)-6-(piperidin-1-yl)-2-styrylpyrimidin-4-amine] the inhibition at 100 µM (HCT-116 cell growth) was 98% and the inhibition at 100 µM (recombinant Aurora A) was 100%.

Work on `Cc1cc(Nc2cc(OCCN(C)C)nc(/C=C/c3ccccc3)n2)n[nH]1` [Example 69] yielded an inhibition at 100 µM (HCT-116 cell growth) of 99% and an inhibition at 100 µM (recombinant Aurora A) of 100%.

Molecule `Cc1cc(Nc2cc(N3CCN(S(C)(=O)=O)CC3)nc(/C=C/c3ccccc3)n2)n[nH]1` [Example 71, N-(5-methyl-1H-pyrazol-3-yl)-6-(4-methylsulfonylpiperazin-1-yl)-2-styrylpyrimidin-4-amine] has an inhibition at 100 µM (HCT-116 cell growth) of 98% and an inhibition at 100 µM (recombinant Aurora A) of 100%.

With `Cc1cc(Nc2cc(NCCN3CCN(C)CC3)nc(/C=C/c3ccccc3)n2)n[nH]1` [Example 77, N^4-(5-methyl-1H-pyrazol-3-yl)-N^6-(2-(4-methylpiperazin-1-yl)ethyl)-2-styrylpyrimidine-4,6-diamine] the inhibition at 100 µM (HCT-116 cell growth) was 99% and the inhibition at 100 µM (recombinant Aurora A) was 100%.

`Cc1cc(Nc2cc(Nc3ccccc3)nc(/C=C/c3ccccc3)n2)n[nH]1` [Example 82, N^4-(5-methyl-1H-pyrazol-3-yl)-N^6-phenyl-2-styrylpyrimidine-4,6-diamine] was tested, and the inhibition at 100 µM (HCT-116 cell growth) was 98% and the inhibition at 100 µM (recombinant Aurora A) was 100%.

For `Cc1cc(Nc2cc(N3CCSCC3)nc(/C=C/c3ccccc3)n2)n[nH]1` [Example 83, N-(5methyl-1H-pyrazol-3-yl)-2-styryl-6thiomorpholinopyrimidin-4-amine], the inhibition at 100 µM (HCT-116 cell growth) was 98% and the inhibition at 100 µM (recombinant Aurora A) was 100%.

Molecule `Cc1cc(Nc2cc(Nc3ccc(F)cc3)nc(/C=C/c3ccccc3)n2)n[nH]1` [Example 86, N^4-(4-fluorophenyl)-N^6-(5methyl-1H-pyrazol-3-yl)-2-styrylpyrimidine-4,6-diamine] has an inhibition at 100 µM (HCT-116 cell growth) of 98% and an inhibition at 100 µM (recombinant Aurora A) of 100%.

Work on `Cc1cc(Nc2cc(NC3CCOCC3)nc(/C=C/c3ccccc3)n2)n[nH]1` [Example 99, N^4-(tetrahydro-2H-pyran-4-yl)-N^6-(5-methyl-1H-pyrazol-3-yl)-2-styrylpyrimidine-4,6-diamine] yielded an inhibition at 100 µM (HCT-116 cell growth) of 98% and an inhibition at 100 µM (recombinant Aurora A) of 100%.

`Cc1cc(Nc2cc(OC3CCNCC3)nc(/C=C/c3ccccc3)n2)n[nH]1` [Example 100] showed an inhibition at 100 µM (Aurora B kinase) of 100%, an inhibition at 100 µM (HCT-116 cell growth) of 96% and an inhibition at 100 µM (recombinant Aurora A) of 100%.

Work on `Cc1cc(Nc2cc(N3CCN(C)CC3)nc(/C=C/c3ccc(Br)cc3)n2)n[nH]1` [Example 103, 2-(4-bromostyryl)-N-(5-methyl-1H-pyrazol-3-yl)-6-(4-methylpiperazin-1-yl)pyrimidin-4-amine] yielded an inhibition at 100 µM (HCT-116 cell growth) of 84% and an inhibition at 100 µM (recombinant Aurora A) of 100%.

`COc1ccc(/C=C/c2nc(Nc3cc(C)[nH]n3)cc(N3CCN(C)CC3)n2)cc1` [Example 160, 2-(4-methoxystyryl)-N-(5-methyl-1H-pyrazol-3-yl)-6-(4-methylpiperazin-1-yl)pyrimidin-4-amine] was tested, and the inhibition at 100 µM (HCT-116 cell growth) was 97% and the inhibition at 100 µM (recombinant Aurora A) was 100%.

In the case of `Cc1cc(Nc2cc(NCc3ccco3)nc(/C=C/c3ccccc3)n2)n[nH]1` [Example 162, N^4-((furan-2-yl)methyl)-N^6-(5methyl-1H-pyrazol-3-yl)-2-styrylpyrimidine-4,6-diamine], the inhibition at 100 µM (HCT-116 cell growth) was 98% and the inhibition at 100 µM (recombinant Aurora A) was 100%.

`COCCNc1cc(Nc2cc(C)[nH]n2)nc(/C=C/c2ccccc2)n1` [Example 163, N^4-(2-methoxyethyl)-N^6-(5methyl-1H-pyrazol-3-yl)-2-styrylpyrimidine-4,6-diamine] gave an inhibition at 100 µM (Aurora B kinase) of 100%, an inhibition at 100 µM (HCT-116 cell growth) of 98% and an inhibition at 100 µM (recombinant Aurora A) of 100%.

With `Cc1cc(Nc2cc(NCC3CCCO3)nc(/C=C/c3ccccc3)n2)n[nH]1` (stereo not shown) [Example 164, N^4-((tetrahydrofuran-2-yl)methyl)-N^6-(5-methyl-1H-pyrazol-3-yl)-2-styrylpyrimidine-4,6-diamine] the inhibition at 100 µM (Aurora B kinase) was 100%, the inhibition at 100 µM (HCT-116 cell growth) was 96% and the inhibition at 100 µM (recombinant Aurora A) was 100%.

`Cc1ccc(/C=C/c2nc(Nc3cc(C)[nH]n3)c(N)c(N3CCN(C)CC3)n2)cc1` [Example 170] gave an inhibition at 100 µM (HCT-116 cell growth) of 99% and an inhibition at 100 µM (recombinant Aurora A) of 100%.

`Cc1cc(Nc2nc(/C=C/c3ccc(Cl)cc3)nc(N3CCN(C)CC3)c2N)n[nH]1` [Example 172] gave an inhibition at 100 µM (HCT-116 cell growth) of 99% and an inhibition at 100 µM (recombinant Aurora A) of 99%.

For `Cc1cc(Nc2nc(/C=C/c3ccc(F)cc3)nc(N3CCN(C)CC3)c2N)n[nH]1` [Example 173], the inhibition at 100 µM (HCT-116 cell growth) was 98% and the inhibition at 100 µM (recombinant Aurora A) was 100%.
